Experimental data: patent US12403139B2, “Methods and compositions for prevention and treatment of cardiac hypertrophy” (University of Hawaii, priority 2010, dated 2025)

Assays:
WT mice exposed to TAC [1] = assay: Pressure overload cardiac hypertrophy by transverse aortic constriction (TAC): heart weight and echocardiography; type: in vivo
Description: Transverse Aortic Constriction (TAC). Transverse aortic constriction was performed as described by Rockman, producing left ventricular hypertrophy by constriction of the aorta (Rockman et al., 1994; Rockman et al., 1991). The left side of the chest was depilated with Nair and a baseline 2-D echocardiogram was obtained. Mice were then deeply anesthetized with a mixture of ketamine and xylazine. The transverse aorta between the brachiocephalic and left carotid artery was banded using 6-0 silk ligature around the vessel and a 26 G blunt needle, after which the needle was withdrawn. Sham surgeries were identical apart from the constriction of the aorta.
Transthoracic echocardiography. Baseline and post TAC transthoracic echocardiography were used to assess changes in mouse heart dimensions and function. Briefly, after two days of acclimatization and depilation, unanesthetized transthoracic echocardiography was performed using a 30-Mhz transducer (Vevo 770, VisualSonics). High quality two-dimensional images and M-mode images of the left ventricle were recorded. Measurements of left ventricular end-diastolic (LVIDd) and end-systolic (LVIDs) internal dimensions were performed by the leading edge to leading edge convention adopted by the American Society of Echocardiography. The left ventricular ejection fraction (% EF) was calculated as (LV Vol; d-LV Vol; s/LV Vol; d×100) (Visualsonics Inc.).
Osmotic pump installation. Long term (up to 42 day) infusion of drugs can be accomplished by insertion of osmotic pumps without the need for repeated injection. Mice are placed under a low plane of anesthesia with an injection of Ketamine/Xylazine anesthetic (50 mg/10 mg·Kg) intraperitoneally (IP) 10 minutes prior to surgery. A small area between shoulder blades is shaved and sterilized with Povidine swab. A small incision is made in this area and blunt dissected below skin to allow placement of an Alzet osmotic pump (model 2006), previously loaded with the drug of choice under the skin between the shoulder blades where it is inaccessible to the mouse. Several stitches are applied to close the incision. The mouse is placed in regular housing on a warming mat until completely conscious, after which mice are then returned to regular housing room.
The mice were subjected to pressure overload induced cardiac hypertrophy by TAC while administered 4 mg/kg of BCTC (in 20% wt/vol 2-Hydroxypropyl)-β-cyclodextrin/PBS) throughout the entire experiment using osmotic pumps (Alzet, Model 2006) pumping continuously at a rate of 0.15 ul/hr. The test was limited to ˜42 days (max) by the function of the pumps, as such the experiment was halted at 36 days post TAC, as pumps are installed previous to the TAC to allow recovery before the TAC surgery. […] This protection from dilation of the left ventricle translates to a protection in the function of the heart as measured by ejection fraction (% EF, p<0.05) and fractional shortening (% FS).

WT mice exposed to TAC [2] = assay: Histological analysis of the heart 36 days post TAC (WGA-Alexa488 and picrosirius red staining); type: in vivo; conditions: BCTC treated TAC mice vs vehicle treated TAC mice
Description: Tissue preparation for histology. […] For histology, hearts were perfused with phosphate-buffered saline and 10% formalin in situ, collected immediately, and fixed overnight in 10% formalin at 4° C. Tissues were then cut in a sagittal orientation, embedded in paraffin, mounted on glass slides, and stored until use. Paraffin-embedded sections were stained for the following:
Collagen: Collagen volume fraction was determined by analysis of picrosirius stained sections. Sections cut to 5 μm thickness were deparaffinized, stained with Weigert's hematoxylin, then stained with picrosirius red (0.1% Sirius Red in picric acid). Sections were subsequently washed and dehydrated before image analysis.
Cardiomyocyte cross sectional area: Heart sections were deparaffinized and permeabilized, then stained with wheat germ-agglutinin conjugated to Alexa488 (WGA-Alexa488, Invitrogen, W11261) at a concentration of 50 μg/mL to identify sarcolemmal membranes and measure cardiomyocyte cross sectional area (described below).
Image collection and analysis. […] Fibrosis and cross-sectional cardiomyocyte area were quantified using ImageJ software (NIH). To quantify fibrosis, collagen fibers were highlighted, and the red-stained pixels were counted to determine the percentage of pixels in each field that represented collagen fibers. […]

For `CC(C)(C)c1ccc(NC(=O)N2CCN(c3ncccc3Cl)CC2)cc1` [BCTC, N-(4-tertiarybutylphenyl)-4-(3-chloropyridin-2-yl)tetrahydropyrazine-1(2H)-carboxamide], the “fractional shortening (% FS)” value (WT mice exposed to TAC [1]; TAC mice, 4 mg/kg BCTC by osmotic pump, 36 days post TAC, vs vehicle, p<0.01 (FIG. 8E)) was “significantly diminished at 36 days post TAC compared to drug-treated mice”, the “ejection fraction (% EF)” value (WT mice exposed to TAC [1]; TAC mice, 4 mg/kg BCTC by osmotic pump, 36 days post TAC, vs vehicle, p<0.05 (FIG. 8D)) was “significantly diminished at 36 days post TAC compared to drug-treated mice” and the “heart weight/body weight ratio” value (WT mice exposed to TAC [1]; TAC mice, 4 mg/kg BCTC by osmotic pump, 36 days post TAC, vs vehicle, p=0.035 (FIG. 8A)) was “significantly greater in vehicle treated WT mice than drug treated mice”. For the same molecule, the “left ventricular internal diameter end-diastolic (LVIDd), TAC mice” value (WT mice exposed to TAC [1]; TAC mice, 4 mg/kg BCTC by osmotic pump, zero to 36 days, vs vehicle, significantly different after 18 days, p<0.001 (FIG. 8C)) was “significantly smaller LVIDd than the vehicle treated TAC mice”, the “LVIDd over time in TAC mice” value (WT mice exposed to TAC [1]; TAC mice, 4 mg/kg BCTC by osmotic pump, vehicle mice start increasing diameter at 9 days) was “the diameter is maintained for the duration of the test” and the “left ventricular internal diameter (LVID,d), sham mice” value (WT mice exposed to TAC [1]; sham mice, BCTC vs vehicle, echocardiography every 9 days (FIG. 8B)) was “no difference”. The “cardiomyocyte cross sectional area” value (WT mice exposed to TAC [2]; p=<0.01, n=100 (FIG. 9A)) was “significantly smaller myocytes in BCTC treated TAC mice than vehicle treated TAC control mice” and the “interstitial collagen (area of collagen staining as a percentage of tissue area)” value (WT mice exposed to TAC [2]; picrosirius red, p=0.05 (FIG. 9B)) was “significantly less interstitial collagen in BCTC treated TAC mice than vehicle treated TAC control mice”.
